From publication PMC7119063 (Bioorganic & Medicinal Chemistry, 2005)
Entries after “also recorded” stand apart in the source; their conditions may differ.

Experiments:
SARS-CoV [1] = settings: cited from earlier work
[2] = tested on: human rhinovirus (HRV) 3C protease; settings: cited from earlier work
SARS-CoV 3CL protease = SARS-CoV 3CL protease (Severe acute respiratory syndrome coronavirus, UniProt P0C6X7); format: biochemical
SARS-CoV [3] = format: cell-based

SMILES	activity to the SARS-CoV in a cell-based assay (SARS-CoV [1])	inhibition of HRV 3C protease (in words) [2]	inhibitory activity against SARS-CoV 3CL protease (in words) (SARS-CoV 3CL protease)	concentration at which active as anti-SARS agent (protection from CPE) (SARS-CoV [3])	EC50 (SARS-CoV [1]) [nM]
CCOC(=O)C=CC(CC1CCNC1=O)NC(=O)C(CC(=O)C(NC(=O)c1cc(C)on1)C(C)C)Cc1ccc(F)cc1 (centres unmarked) [Compound 1a, Ethyl 4-[2-(4-fluorobenzyl)-6-methyl-5-(5-methyl-3-isoxazolyl)carbonylamino-1,4-dioxoheptylamino]-5-(2-oxo-3-pyrrolidinyl)-2-pentenoate]	inactive	potent inhibitor	no inhibitory activity; also recorded: inactive	inactive	–
CC(C)[C@@H]1NC(=O)[C@H](C)OC(=O)[C@@H](C(C)C)NC(=O)[C@@H](C(C)C)OC(=O)[C@H](C(C)C)NC(=O)[C@H](C)OC(=O)[C@@H](C(C)C)NC(=O)[C@@H](C(C)C)OC(=O)[C@H](C(C)C)NC(=O)[C@H](C)OC(=O)[C@@H](C(C)C)NC(=O)[C@@H](C(C)C)OC1=O [valinomycin]	–	–	–	–	850
